Where “and” joins values, the source holds several entries; their conditions need not be identical. Equal entries are not always repeated. Where two headings read alike, the source gives them in different places. Fluorescein = fluorescein label attached to a cysteine side chain
How the values were obtained:
anti-Dengue-1 antibody = test: Peptide binding assay using fluorescence polarization, anti-Dengue-1; settings: read-out: Kd, fluorescence polarization titration (Eq. 8); 10 nM fluorescein-labeled peptide titrated with antibody
anti-HIV1-p17 antibody = test: Peptide binding assay using fluorescence polarization, anti-HIV1-p17
anti-HA antibody = test: Peptide binding assay using fluorescence polarization, anti-HA
[1] = read-out: Kd, fluorescence polarization titration (Eq. 8), 10 nM fluorescein-labeled short epitope peptide titrated with antibody

Which Kd (anti-Dengue-1 antibody) does the source give for EHKYSWKS here?
Its Kd is 70 nM.

EHKYSWKS-GGG-C(Fluorescein) was tested. Which Kd (anti-Dengue-1 antibody) did it give?
The Kd was 70 ± 13 nM.

With ELDRWEKIRLRP as the substance, how does the Kd (anti-HIV1-p17 antibody; read-out: Kd (Kd1) of non-labeled peptide, competition assay (Eqs. 9 and 10), antibody and fluorescein-labeled peptide 100 nM each, titrated with non-labeled peptide) read?
Its Kd is 42 ± 1 nM.

With ELDRWEKIRLRP-GGG-C(Fluorescein) as the substance, how does the Kd (anti-HIV1-p17 antibody; read-out: Kd, fluorescence polarization titration (Eq. 8), 10 nM fluorescein-labeled peptide titrated with antibody) read?
Its Kd is 24 ± 3 nM.

With WEKIRLR as the substance, how does the Kd (anti-HIV1-p17 antibody; [1]) read?
Its Kd is ~3000 nM and 3300 nM.

“WEKIRLR-GGG-C(Fluorescein) (Ac-WEKIRLRGGGC(Fluorescein)-NH2)” was tested. Which Kd (anti-HIV1-p17 antibody; [1]) did it give?
The Kd was 3300 ± 200 nM.

With YPYDVPDYA as the substance, how does the Kd (anti-HA antibody; read-out: Kd (Kd1) of non-labeled peptide, competition assay (Eqs. 9 and 10), antibody and fluorescein-labeled peptide 10 nM each, titrated with non-labeled peptide) read?
Its Kd is 4.5 nM and ~5 nM.

With YPYDVPDYA-GGG-C(Fluorescein) as the substance, how does the Kd (anti-HA antibody; read-out: Kd, fluorescence polarization titration (Eq. 8), 2 nM fluorescein-labeled peptide titrated with antibody) read?
Its Kd is 0.58 ± 0.22 nM.

Reference: patent publication US20150285818A1, “Switchable Reporter Enzymes for Homogenous Antibody Detection” (TECHNISCHE UNIVERSITEIT EINDHOVEN, priority 2012, published 2015)
